Experimental data as given in patent US20100190742A1, “COSMETIC/PHARMACEUTICAL COMPOSITIONS COMPRISING HYALURONIC ACID AND ADMINISTRATION THEREOF FOR REDUCING SIGNS OF AGING” (L'OREAL, priority 2007, published 2010).

System: CD44
Experiment: Expression of CD44 on cultured normal human skin explants, indirect immunoperoxidase histochemistry
Assay type: cell-based
Conditions: for Histochemical analysis of the CD44 receptor (semiquantitative scores), Mean ± sd n = 8: skin explants cultured 14 days
Description: CD44 is a transmembrane glycoprotein with a molecular weight of 80-95 kDa (CD44). The increase in the expression of this receptor at the surface of the cells of the skin improves the binding of hyaluronic acid, collagen and fibronectin. This binding makes possible in particular hydration of the dermis and epidermis.
Normal human skin fragments are obtained by plastic surgery and are deposited in culture plates. The skin explants are cultured for 14 days and compound A is added daily at 0.3 or 3 mM. At the end of culturing, the skin explants are fixed in Bouin's fluid and embedded in paraffin wax. Sections are produced and the receptor is visualized by a 3-layer indirect immunoperoxidase technique (ABC peroxidase kit, Vector Laboratories).
Histochemical analysis of the CD44 receptor (semiquantitative scores);

CC(O)C[C@@H]1OC[C@@H](O)[C@H](O)[C@H]1O (stereo partly drawn) [compound A, C-β-D-xylopyranoside-2-hydroxypropane]
activity on expression of CD44 (in words) (0.3 mM): present | activity on expression of CD44 (in words) (higher concentration (3 mM)): again encountered | Histochemical analysis of the CD44 receptor (semiquantitative scores), Mean ± sd n = 8 (compound added daily at 0.3 mM): 2.30 ± 1.00 | Histochemical analysis of the CD44 receptor (semiquantitative scores), Mean ± sd n = 8 (compound added daily at 3.0 mM): 2.00 ± 1.10 | expression of CD44 (histological evaluation, in words) (skin explants treated daily for 14 days): significant increase
